Experimental data from the supplement of paper PMC6045584.
± gives the standard deviation of the averaged measurements.

Assays:
[1] = compound: CC/C(=C(\c1ccc(O)cc1)c1ccc(OCCN(C)C)cc1)c1ccccc1 [AFIMOXIFENE]; assay: surviving fraction relative to DMSO-only wells; higher = less growth inhibition; settings: exposure time: 5 days
Summary of the method: (§1)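 Log-phase tumour cells were seeded at 250–500 per well in 384-well plates and, from 24 hours after seeding, exposed continuously for five days to inhibitors at 0.5, 1, 5, 10, 50, 100, 500 and 1000 nM. Surviving fraction is CellTiter-Glo luminescence normalised to the median of DMSO-only wells. Luminescence was measured after 10 minutes at room temperature, and only lines screened three times with replicate Pearson r >0.7 and median Z' >0.3 were kept.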

[2] = compound: Cc1c(N)nc([C@H](CC(N)=O)NC[C@H](N)C(N)=O)nc1C(=O)N[C@H](C(=O)N[C@H](C)[C@@H](O)[C@H](C)C(=O)N[C@H](C(=O)NCCc1nc(-c2nc(C(=O)NCCC[S+](C)C)cs2)cs1)[C@@H](C)O)[C@@H](OC1OC(CO)C(O)C(O)C1OC1OC(CO)C(O)C(OC(N)=O)C1O)c1cnc[nH]1 [BLEOMYCIN]; assay: as above; settings: exposure time: 5 days
Summary of the method: as §1

Test System	surviving fraction ([1]; 0.5 nM)	surviving fraction ([1]; 1 nM)	surviving fraction ([1]; 5 nM)	surviving fraction ([1]; 10 nM)	surviving fraction ([1]; 50 nM)	surviving fraction ([1]; 100 nM)	surviving fraction ([1]; 500 nM)	surviving fraction ([1]; 1000 nM)	surviving fraction ([2]; 0.5 nM)	surviving fraction ([2]; 1 nM)	surviving fraction ([2]; 5 nM)	surviving fraction ([2]; 10 nM)	surviving fraction ([2]; 50 nM)	surviving fraction ([2]; 100 nM)	surviving fraction ([2]; 500 nM)	surviving fraction ([2]; 1000 nM)
VP229 BREAST	1.25 ± 0.37	1.2 ± 0.13	1.09 ± 0.08	1.16 ± 0.13	1.14 ± 0.07	1.16 ± 0.061	0.989 ± 0.21	1 ± 0.13	0.776 ± 0.093	0.759 ± 0.052	0.754 ± 0.081	0.711 ± 0.072	0.915 ± 0.089	0.893 ± 0.093	0.837 ± 0.08	0.665 ± 0.076
NY BONE	1.03 ± 0.041	1.026 ± 0.0089	1.1 ± 0.023	1.08 ± 0.027	1.11 ± 0.055	1.082 ± 0.006	0.972 ± 0.0056	0.9223 ± 0.0081	0.9287 ± 0.0064	0.925 ± 0.054	0.938 ± 0.028	0.911 ± 0.026	0.793 ± 0.035	0.589 ± 0.044	0.238 ± 0.0045	0.161 ± 0.012
RDES SOFT TISSUE	1.25 ± 0.09	1.16 ± 0.052	1.16 ± 0.034	1.14 ± 0.095	1.14 ± 0.14	1.15 ± 0.062	1.59 ± 0.34	0.955 ± 0.11	0.743 ± 0.081	0.794 ± 0.28	0.732 ± 0.089	0.783 ± 0.096	0.985 ± 0.27	0.915 ± 0.09	0.947 ± 0.19	0.582 ± 0.2
OSHN BONE	1.09 ± 0.044	1.08 ± 0.023	1.1 ± 0.035	1.07 ± 0.034	1.12 ± 0.016	1.146 ± 0.0071	1.15 ± 0.016	1.1 ± 0.031	0.9207 ± 0.0087	0.916 ± 0.012	0.916 ± 0.007	0.903 ± 0.024	0.925 ± 0.0044	0.856 ± 0.07	0.29 ± 0.039	0.132 ± 0.03
CAL120 BREAST	1 ± 0.031	0.972 ± 0.017	1.02 ± 0.074	1 ± 0.044	1.04 ± 0.041	0.994 ± 0.045	0.999 ± 0.031	0.948 ± 0.027	0.901 ± 0.028	0.926 ± 0.022	0.903 ± 0.013	0.9 ± 0.023	0.819 ± 0.023	0.767 ± 0.021	0.546 ± 0.027	0.399 ± 0.0084
C33A CERVIX	1.06 ± 0.065	1.07 ± 0.062	1.06 ± 0.15	1.1 ± 0.047	1.14 ± 0.083	1.21 ± 0.029	1.22 ± 0.12	1.34 ± 0.069	0.925 ± 0.11	0.98 ± 0.039	0.984 ± 0.13	0.827 ± 0.062	0.435 ± 0.014	0.334 ± 0.02	0.163 ± 0.015	0.124 ± 0.01
HSSYII SYNOVIAL	0.993 ± 0.029	1.04 ± 0.021	0.989 ± 0.075	1.02 ± 0.055	1.01 ± 0.035	0.993 ± 0.046	0.921 ± 0.07	0.968 ± 0.05	0.797 ± 0.068	0.872 ± 0.045	0.768 ± 0.045	0.788 ± 0.017	0.6562 ± 0.0056	0.572 ± 0.029	0.224 ± 0.014	0.14 ± 0.0027
HUO3N1 BONE	1.06 ± 0.046	1.03 ± 0.038	1.1 ± 0.065	1.09 ± 0.029	1.12 ± 0.057	1.06 ± 0.043	0.932 ± 0.074	0.849 ± 0.033	0.898 ± 0.053	0.897 ± 0.0087	0.924 ± 0.016	0.908 ± 0.044	0.957 ± 0.031	0.892 ± 0.059	0.676 ± 0.0053	0.532 ± 0.025
ZR751 BREAST	1.13 ± 0.23	1.21 ± 0.18	1.09 ± 0.21	1.31 ± 0.19	1.09 ± 0.22	1.07 ± 0.17	1.03 ± 0.19	0.993 ± 0.084	0.985 ± 0.037	0.975 ± 0.083	0.925 ± 0.1	0.957 ± 0.19	0.905 ± 0.073	0.924 ± 0.17	0.897 ± 0.15	0.69 ± 0.12
BT20 BREAST	1.32 ± 0.11	1.27 ± 0.07	1.24 ± 0.065	1.3 ± 0.096	1.19 ± 0.086	1.28 ± 0.037	1.7 ± 0.076	1.9 ± 0.13	0.766 ± 0.062	0.742 ± 0.02	0.718 ± 0.045	0.768 ± 0.06	0.849 ± 0.071	0.688 ± 0.14	0.48 ± 0.087	0.353 ± 0.042
